Numbers after ± are expanded uncertainties.
Test: molar heat capacity at constant pressure
Details: 101.33 kPa

O=P([O-])([O-])[O-].[Cs+].[Ni+2] [cesium nickel monophosphate]
Details	molar heat capacity at constant pressure [J/K/mol]
344.8 K, Crystal 2, DSC	162.96 ± 7.5
345.8 K, Crystal 2, DSC	163.79 ± 7.5
346.8 K, Crystal 2, DSC	163.79 ± 7.5
347.8 K, Crystal 2, DSC	163.79 ± 7.5
348.8 K, Crystal 2, DSC	164.63 ± 7.5
349.8 K, Crystal 2, DSC	165.46 ± 7.5
350 K, Crystal 2, Small (less than 1 g) adiabatic calorimetry	165.04 ± 4.2
350.8 K, Crystal 2, DSC	165.46 ± 7.5
351.8 K, Crystal 2, DSC	165.46 ± 7.5
352.8 K, Crystal 2, DSC	166.29 ± 7.5
353.8 K, Crystal 2, DSC	167.12 ± 7.5
354.8 K, Crystal 2, DSC	167.12 ± 7.5
355.8 K, Crystal 2, DSC	167.12 ± 7.5
356.8 K, Crystal 2, DSC	167.95 ± 7.5
357.8 K, Crystal 2, DSC	167.95 ± 7.5
358.8 K, Crystal 2, DSC	168.78 ± 7.5
359.8 K, Crystal 2, DSC	168.78 ± 7.5
360 K, Crystal 2, Small (less than 1 g) adiabatic calorimetry	169.2 ± 4.2
360.8 K, Crystal 2, DSC	169.61 ± 7.5
361.8 K, Crystal 2, DSC	170.45 ± 7.5
362.8 K, Crystal 2, DSC	170.45 ± 7.5
363.8 K, Crystal 2, DSC	170.45 ± 7.5
364.8 K, Crystal 2, DSC	171.28 ± 7.5
365.8 K, Crystal 2, DSC	172.11 ± 7.5
366.8 K, Crystal 2, DSC	172.11 ± 7.5
367.8 K, Crystal 2, DSC	172.94 ± 7.5
368.8 K, Crystal 2, DSC	172.94 ± 7.5
369.8 K, Crystal 2, DSC	172.94 ± 7.5
370 K, Crystal 2, Small (less than 1 g) adiabatic calorimetry	173.36 ± 4.4
370.8 K, Crystal 2, DSC	173.77 ± 7.5
371.8 K, Crystal 2, DSC	173.77 ± 7.5
372.8 K, Crystal 2, DSC	174.6 ± 7.5
373.8 K, Crystal 2, DSC	175.44 ± 7.5
374.8 K, Crystal 2, DSC	177.1 ± 7.5
376.3 K, Crystal 2, DSC	180.42 ± 7.5
380 K, Crystal 2, Small (less than 1 g) adiabatic calorimetry	176.27 ± 4.5
382.8 K, Crystal 1, DSC	178.26 ± 7.7
382.8 K, Crystal 2, Small (less than 1 g) adiabatic calorimetry	176.68 ± 4.5
387.8 K, Crystal 1, DSC	183.75 ± 8.3
388.8 K, Crystal 1, DSC	179.59 ± 7.5
389.8 K, Crystal 1, DSC	177.93 ± 7.5
390 K, Crystal 1, DSC	177.1 ± 7.6
390.8 K, Crystal 1, DSC	177.1 ± 7.5
391.8 K, Crystal 1, DSC	177.1 ± 7.5
392.8 K, Crystal 1, DSC	177.1 ± 7.5
393.8 K, Crystal 1, DSC	177.1 ± 7.5
394.8 K, Crystal 1, DSC	176.27 ± 7.5
395.8 K, Crystal 1, DSC	177.1 ± 7.5
396.8 K, Crystal 1, DSC	176.27 ± 7.5
397.8 K, Crystal 1, DSC	176.27 ± 7.5
398.8 K, Crystal 1, DSC	176.27 ± 7.5
399.8 K, Crystal 1, DSC	176.27 ± 7.5
400 K, Crystal 1, DSC	175.85 ± 7.6
400.8 K, Crystal 1, DSC	175.44 ± 7.5
402.8 K, Crystal 1, DSC	175.44 ± 7.5
404.8 K, Crystal 1, DSC	174.6 ± 7.5
407.1 K, Crystal 1, DSC	174.6 ± 7.5
408.8 K, Crystal 1, DSC	174.6 ± 7.5
410 K, Crystal 1, DSC	175.02 ± 7.6
410.8 K, Crystal 1, DSC	174.6 ± 7.5
412.8 K, Crystal 1, DSC	174.6 ± 7.5
414.8 K, Crystal 1, DSC	174.6 ± 7.5
416.8 K, Crystal 1, DSC	174.6 ± 7.5
418.8 K, Crystal 1, DSC	174.6 ± 7.5
420 K, Crystal 1, DSC	174.52 ± 7.6
420.8 K, Crystal 1, DSC	174.6 ± 7.5
422.8 K, Crystal 1, DSC	174.6 ± 7.5
424.8 K, Crystal 1, DSC	174.6 ± 7.5
426.8 K, Crystal 1, DSC	174.6 ± 7.5
428.8 K, Crystal 1, DSC	174.6 ± 7.5
430 K, Crystal 1, DSC	174.27 ± 7.6
430.8 K, Crystal 1, DSC	174.6 ± 7.5
432.8 K, Crystal 1, DSC	174.6 ± 7.5
434.8 K, Crystal 1, DSC	174.6 ± 7.5
436.8 K, Crystal 1, DSC	174.6 ± 7.5
438.8 K, Crystal 1, DSC	174.6 ± 7.5
440 K, Crystal 1, DSC	174.27 ± 7.6
440.8 K, Crystal 1, DSC	173.77 ± 7.5
442.8 K, Crystal 1, DSC	174.6 ± 7.5
444.8 K, Crystal 1, DSC	174.6 ± 7.5
446.8 K, Crystal 1, DSC	174.6 ± 7.5
448.8 K, Crystal 1, DSC	173.77 ± 7.5
450 K, Crystal 1, DSC	174.44 ± 7.6
450.8 K, Crystal 1, DSC	173.77 ± 7.5
452.8 K, Crystal 1, DSC	173.77 ± 7.5
454.8 K, Crystal 1, DSC	174.6 ± 7.5
456.8 K, Crystal 1, DSC	173.77 ± 7.5
458.8 K, Crystal 1, DSC	174.6 ± 7.5
460 K, Crystal 1, DSC	174.77 ± 7.6
460.8 K, Crystal 1, DSC	174.6 ± 7.5
462.8 K, Crystal 1, DSC	174.6 ± 7.5
464.8 K, Crystal 1, DSC	174.6 ± 7.5
466.8 K, Crystal 1, DSC	174.6 ± 7.5
468.8 K, Crystal 1, DSC	175.44 ± 7.5
470 K, Crystal 1, DSC	175.19 ± 7.6
470.8 K, Crystal 1, DSC	175.44 ± 7.5
472.8 K, Crystal 1, DSC	175.44 ± 7.5
474.8 K, Crystal 1, DSC	175.44 ± 7.5
476.8 K, Crystal 1, DSC	176.27 ± 7.5
478.8 K, Crystal 1, DSC	176.27 ± 7.5
480 K, Crystal 1, DSC	175.68 ± 7.6
480.8 K, Crystal 1, DSC	176.27 ± 7.5
482.8 K, Crystal 1, DSC	176.27 ± 7.5
484.8 K, Crystal 1, DSC	176.27 ± 7.5
486.8 K, Crystal 1, DSC	176.27 ± 7.5
488.8 K, Crystal 1, DSC	176.27 ± 7.5
490 K, Crystal 1, DSC	176.18 ± 7.6
490.8 K, Crystal 1, DSC	177.1 ± 7.5
492.8 K, Crystal 1, DSC	177.1 ± 7.5
494.8 K, Crystal 1, DSC	177.1 ± 7.5
496.8 K, Crystal 1, DSC	177.1 ± 7.5
498.8 K, Crystal 1, DSC	177.1 ± 7.5
500 K, Crystal 1, DSC	176.77 ± 7.6
500.8 K, Crystal 1, DSC	177.1 ± 7.5
502.8 K, Crystal 1, DSC	177.1 ± 7.5
504.8 K, Crystal 1, DSC	177.1 ± 7.5
506.8 K, Crystal 1, DSC	177.1 ± 7.5
508.8 K, Crystal 1, DSC	177.1 ± 7.5
510 K, Crystal 1, DSC	177.26 ± 7.6
510.8 K, Crystal 1, DSC	177.1 ± 7.5
512.8 K, Crystal 1, DSC	177.1 ± 7.5
514.8 K, Crystal 1, DSC	177.1 ± 7.5
516.8 K, Crystal 1, DSC	177.1 ± 7.5
518.8 K, Crystal 1, DSC	177.1 ± 7.5
520 K, Crystal 1, DSC	177.76 ± 7.7
520.8 K, Crystal 1, DSC	177.93 ± 7.5
522.8 K, Crystal 1, DSC	177.93 ± 7.5
524.8 K, Crystal 1, DSC	177.93 ± 7.5
526.8 K, Crystal 1, DSC	177.93 ± 7.5
528.8 K, Crystal 1, DSC	177.93 ± 7.5
530 K, Crystal 1, DSC	178.26 ± 7.7
530.8 K, Crystal 1, DSC	177.93 ± 7.5
532.8 K, Crystal 1, DSC	177.93 ± 7.5
534.8 K, Crystal 1, DSC	177.93 ± 7.5
536.8 K, Crystal 1, DSC	177.93 ± 7.5
538.8 K, Crystal 1, DSC	178.76 ± 7.5
540 K, Crystal 1, DSC	178.76 ± 7.7
540.8 K, Crystal 1, DSC	178.76 ± 7.5
542.8 K, Crystal 1, DSC	178.76 ± 7.5
544.8 K, Crystal 1, DSC	178.76 ± 7.5
546.8 K, Crystal 1, DSC	178.76 ± 7.5
548.8 K, Crystal 1, DSC	178.76 ± 7.5
550 K, Crystal 1, DSC	179.18 ± 7.7
550.8 K, Crystal 1, DSC	178.76 ± 7.5
552.8 K, Crystal 1, DSC	178.76 ± 7.5
554.8 K, Crystal 1, DSC	179.59 ± 7.5
556.8 K, Crystal 1, DSC	179.59 ± 7.5
558.8 K, Crystal 1, DSC	179.59 ± 7.5
560 K, Crystal 1, DSC	179.59 ± 7.8
560.8 K, Crystal 1, DSC	179.59 ± 7.5
562.8 K, Crystal 1, DSC	179.59 ± 7.5
564.8 K, Crystal 1, DSC	179.59 ± 7.5
566.8 K, Crystal 1, DSC	180.42 ± 7.5
568.8 K, Crystal 1, DSC	180.42 ± 7.5
570 K, Crystal 1, DSC	180.01 ± 7.8
570.8 K, Crystal 1, DSC	180.42 ± 7.5
572.8 K, Crystal 1, DSC	180.42 ± 7.5
574.8 K, Crystal 1, DSC	180.42 ± 7.5
576.8 K, Crystal 1, DSC	180.42 ± 7.5
578.8 K, Crystal 1, DSC	180.42 ± 7.5
580 K, Crystal 1, DSC	180.34 ± 7.8
580.8 K, Crystal 1, DSC	180.42 ± 7.5
582.8 K, Crystal 1, DSC	180.42 ± 7.5
584.8 K, Crystal 1, DSC	180.42 ± 7.5
586.8 K, Crystal 1, DSC	180.42 ± 7.5
588.8 K, Crystal 1, DSC	180.42 ± 7.5
590 K, Crystal 1, DSC	180.76 ± 7.8
590.8 K, Crystal 1, DSC	181.26 ± 7.5
592.8 K, Crystal 1, DSC	181.26 ± 7.5
594.8 K, Crystal 1, DSC	181.26 ± 7.5
596.8 K, Crystal 1, DSC	181.26 ± 7.5
598.8 K, Crystal 1, DSC	181.26 ± 7.5
600 K, Crystal 1, DSC	181.26 ± 7.8
600.8 K, Crystal 1, DSC	181.26 ± 7.5
602.8 K, Crystal 1, DSC	181.26 ± 7.5
604.8 K, Crystal 1, DSC	181.26 ± 7.5
606.8 K, Crystal 1, DSC	181.26 ± 7.5
608.8 K, Crystal 1, DSC	182.09 ± 7.5
610 K, Crystal 1, DSC	181.84 ± 7.9
610.8 K, Crystal 1, DSC	182.09 ± 7.5
612.8 K, Crystal 1, DSC	182.09 ± 7.5
614.8 K, Crystal 1, DSC	182.09 ± 7.5
616.8 K, Crystal 1, DSC	182.09 ± 7.5
618.8 K, Crystal 1, DSC	182.09 ± 7.5
620 K, Crystal 1, DSC	182.5 ± 7.9
620.8 K, Crystal 1, DSC	182.09 ± 7.5
622.8 K, Crystal 1, DSC	182.92 ± 8.3
624.8 K, Crystal 1, DSC	182.92 ± 8.3
626.8 K, Crystal 1, DSC	182.92 ± 8.3
628.8 K, Crystal 1, DSC	182.92 ± 8.3
630 K, Crystal 1, DSC	183.25 ± 7.9
630.8 K, Crystal 1, DSC	182.92 ± 8.3
632.8 K, Crystal 1, DSC	183.75 ± 8.3
634.8 K, Crystal 1, DSC	183.75 ± 8.3
636.8 K, Crystal 1, DSC	183.75 ± 8.3
638.8 K, Crystal 1, DSC	184.58 ± 8.3
640 K, Crystal 1, DSC	184.33 ± 8
640.8 K, Crystal 1, DSC	184.58 ± 8.3
642.8 K, Crystal 1, DSC	184.58 ± 8.3
644.8 K, Crystal 1, DSC	184.58 ± 8.3
646.8 K, Crystal 1, DSC	185.41 ± 8.3
648.8 K, Crystal 1, DSC	185.41 ± 8.3
650 K, Crystal 1, DSC	185.58 ± 8.1

From the NIST ThermoML archive (doi:10.1016/j.jct.2018.10.006)
